In patent US8809376B2, “Indanyloxydihydrobenzofuranylacetic acids” (Boehringer Ingelheim International GmbH, priority 2012, dated 2014):

Each compound was assayed against human GPR40 receptor (Homo sapiens, UniProt O14842) (assay: Assay II: IP1 accumulation (IPOne assay system) in 1321N1 cells stably expressing human GPR40 receptor). Conditions: stimulated 1 h at 37° C., 5% CO2, LiCl 50 mM.
Chain of human GPR40 receptor (O14842 whole entry): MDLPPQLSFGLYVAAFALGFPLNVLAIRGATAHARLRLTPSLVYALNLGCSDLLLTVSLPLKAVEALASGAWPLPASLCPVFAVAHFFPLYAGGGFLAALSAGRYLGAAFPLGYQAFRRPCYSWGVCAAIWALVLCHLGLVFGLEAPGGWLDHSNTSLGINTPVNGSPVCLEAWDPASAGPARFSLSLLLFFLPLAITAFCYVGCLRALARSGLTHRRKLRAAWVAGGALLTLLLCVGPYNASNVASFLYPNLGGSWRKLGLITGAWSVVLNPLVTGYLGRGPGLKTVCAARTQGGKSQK
Type: cell-based
Procedure: IP1 accumulation measurements using the IPOne assay system—1321N1 cells stably expressing human GPR40 receptor (Euroscreen, Belgium) are seeded 24 h before the assay in white 384-well plates in culture medium containing 10% FCS, 1% Na-Pyruvate and 400 μg/mL G418. IP1 is assayed according to the manufacturer's description (Cisbio Bioassays, France). In brief, the assay is started by substitution of the culture medium by stimulation buffer (Hepes 10 mM, CaCl2 1 mM, MgCl2 0.5 mM, KCl 4.2 mM, NaCl 146 mM, glucose 5.5 mM and LiCl 50 mM, pH 7.4). Cells are stimulated for 1 h at 37° C., 5% CO2 by addition of the compounds that are diluted in stimulation buffer containing LiCl. Assays are stopped by adding HTRF-conjugates (IP1-d2 and Anti-IP1 cryptate Tb) and lysis buffer, provided by the manufacturer. After an incubation time of 1 h at room temperature plates are measured using an EnVision™, Perkin Elmer. The obtained fluorescence ratios at 665/615 […] are then used to calculate the pEC50 values using Assay Explorer 3.3 Software (Accelrys, Inc.) by interpolation using an IP1 reference curve and subsequent sigmoidal curve fitting allowing for a variable hill slope.
Work on `CS(=O)(=O)c1ccc(Cc2c(C(F)(F)F)ccc3c2CC[C@H]3Oc2ccc3c(c2)OC[C@H]3CC(=O)O)cc1` [Example 17, {(S)-6-[(R)-4-(4-Methylsulfonyl-benzyl)-5-trifluoromethyl-indan-1-yloxy]-2,3-dihydro-benzofuran-3-yl}-acetic acid] yielded an EC50 of 24 nM.
`O=C(O)C[C@@H]1COc2cc(O[C@@H]3CCc4c(Cc5cc(F)cc(F)c5)ccc(F)c43)ccc21` [Example 18, {(S)-6-[(R)-4-(3,5-Difluoro-benzyl)-7-fluoro-indan-1-yloxy]-2,3-dihydrobenzofuran-3-yl}-acetic acid] was tested, and the EC50 was 27 nM.
Compound `O=C(O)C[C@@H]1COc2cc(O[C@@H]3CCc4c(Cc5c(F)cccc5F)ccc(F)c43)ccc21` [Example 19, {(S)-6-[(R)-4-(2,6-Difluoro-benzyl)-7-fluoro-indan-1-yloxy]-2,3-dihydrobenzofuran-3-yl}-acetic acid] has an EC50 of 23 nM.
`N#Cc1ccc(Cc2ccc(F)c3c2CC[C@H]3Oc2ccc3c(c2)OC[C@H]3CC(=O)O)cc1` [Example 20, {(S)-6-[(R)-4-(4-Cyano-benzyl)-7-fluoro-indan-1-yloxy]-2,3-dihydrobenzofuran-3-yl}-acetic acid] showed an EC50 of 589 nM.
Work on `O=C(O)C[C@@H]1COc2cc(O[C@@H]3CCc4c(Cc5ccc(F)cc5F)ccc(F)c43)ccc21` [Example 21, {(S)-6-[(R)-4-(2,4-Difluoro-benzyl)-7-fluoro-indan-1-yloxy]-2,3-dihydrobenzofuran-3-yl}-acetic acid] yielded an EC50 of 15 nM.
For `N#Cc1ccc2c(c1Cc1ccccc1F)CC[C@H]2Oc1ccc2c(c1)OC[C@H]2CC(=O)O` [Example 22, {(S)-6-[(R)-5-Cyano-4-(2-fluoro-benzyl)-indan-1-yloxy]-2,3-dihydro-benzofuran-3-yl}-acetic acid], the EC50 was 6 nM.
For `N#Cc1ccc2c(c1Cc1ccc(F)cc1)CC[C@H]2Oc1ccc2c(c1)OC[C@H]2CC(=O)O` [Example 23, {(S)-6-[(R)-5-Cyano-4-(4-fluoro-benzyl)-indan-1-yloxy]-2,3-dihydro-benzofuran-3-yl}-acetic acid], the EC50 was 11 nM.
Work on `N#Cc1ccc2c(c1Cc1cccc(F)c1)CC[C@H]2Oc1ccc2c(c1)OC[C@H]2CC(=O)O` [Example 24, {(S)-6-[(R)-5-Cyano-4-(3-fluoro-benzyl)-indan-1-yloxy]-2,3-dihydro-benzofuran-3-yl}-acetic acid] yielded an EC50 of 12 nM.
In the case of `O=C(O)C[C@@H]1COc2cc(O[C@@H]3CCc4c3ccc(C(F)(F)F)c4Cc3ccc(O)cc3)ccc21` [Example 25, {(S)-6-[(R)-4-(4-Hydroxy-benzyl)-5-trifluoromethyl-indan-1-yloxy]-2,3-dihydrobenzofuran-3-yl}-acetic acid], the EC50 is reported as 2 nM.
For `O=C(O)C[C@@H]1COc2cc(O[C@@H]3CCc4c3ccc(C(F)(F)F)c4Cc3ccc(F)cc3F)ccc21` [Example 26, {(S)-6-[(R)-4-(2,4-Difluoro-benzyl)-5-trifluoromethyl-indan-1-yloxy]-2,3-dihydrobenzofuran-3-yl}-acetic acid], the EC50 was 2 nM.
Compound `COc1cccc(Cc2c(C(F)(F)F)ccc3c2CC[C@H]3Oc2ccc3c(c2)OC[C@H]3CC(=O)O)c1` [Example 27, {(S)-6-[(R)-4-(3-Methoxy-benzyl)-5-trifluoromethyl-indan-1-yloxy]-2,3-dihydrobenzofuran-3-yl}-acetic acid] has an EC50 of 5 nM.
For `N#Cc1ccc2c(c1Cc1c(F)cccc1F)CC[C@H]2Oc1ccc2c(c1)OC[C@H]2CC(=O)O` [Example 28, {(S)-6-[(R)-5-Cyano-4-(2,6-difluoro-benzyl)-indan-1-yloxy]-2,3-dihydro-benzofuran-3-yl}-acetic acid], the EC50 was 5 nM.
For `O=C(O)C[C@@H]1COc2cc(O[C@@H]3CCc4c3ccc(C(F)(F)F)c4Cc3cccc(F)c3)ccc21` [Example 29, {(S)-6-[(R)-4-(3-Fluoro-benzyl)-5-trifluoromethyl-indan-1-yloxy]-2,3-dihydrobenzofuran-3-yl}-acetic acid], the EC50 was 3 nM.
`O=C(O)C[C@@H]1COc2cc(O[C@@H]3CCc4c3ccc(C(F)(F)F)c4Cc3ccc(F)cc3)ccc21` [Example 30, {(S)-6-[(R)-4-(4-Fluoro-benzyl)-5-trifluoromethyl-indan-1-yloxy]-2,3-dihydrobenzofuran-3-yl}-acetic acid] showed an EC50 of 2 nM.
Work on `O=C(O)C[C@@H]1COc2cc(O[C@@H]3CCc4c3ccc(C(F)(F)F)c4Cc3ccccc3F)ccc21` [Example 31, {(S)-6-[(R)-4-(2-Fluoro-benzyl)-5-trifluoromethyl-indan-1-yloxy]-2,3-dihydrobenzofuran-3-yl}-acetic acid] yielded an EC50 of 2 nM.
Work on `N#Cc1ccc2c(c1Cc1cccc(F)c1F)CC[C@H]2Oc1ccc2c(c1)OC[C@H]2CC(=O)O` [Example 32, {(S)-6-[(R)-5-Cyano-4-(2,3-difluoro-benzyl)-indan-1-yloxy]-2,3-dihydro-benzofuran-3-yl}-acetic acid] yielded an EC50 of 8 nM.
In the case of `COc1ccc(Cc2c(C(F)(F)F)ccc3c2CC[C@H]3Oc2ccc3c(c2)OC[C@H]3CC(=O)O)cc1` [Example 33, {(S)-6-[(R)-4-(4-Methoxy-benzyl)-5-trifluoromethyl-indan-1-yloxy]-2,3-dihydrobenzofuran-3-yl}-acetic acid], the EC50 is reported as 2 nM.
`N#Cc1cccc(Cc2c(C(F)(F)F)ccc3c2CC[C@H]3Oc2ccc3c(c2)OC[C@H]3CC(=O)O)c1` [Example 34, {(S)-6-[(R)-4-(3-Cyano-benzyl)-5-trifluoromethyl-indan-1-yloxy]-2,3-dihydrobenzofuran-3-yl}-acetic acid] gave an EC50 of 4 nM.
Compound `Cc1ccccc1Cc1c(C(F)(F)F)ccc2c1CC[C@H]2Oc1ccc2c(c1)OC[C@H]2CC(=O)O` [Example 35, {(S)-6-[(R)-4-(2-Methyl-benzyl)-5-trifluoromethyl-indan-1-yloxy]-2,3-dihydrobenzofuran-3-yl}-acetic acid] has an EC50 of 2 nM.
`N#Cc1ccccc1Cc1c(C(F)(F)F)ccc2c1CC[C@H]2Oc1ccc2c(c1)OC[C@H]2CC(=O)O` [Example 36, {(S)-6-[(R)-4-(2-Cyano-benzyl)-5-trifluoromethyl-indan-1-yloxy]-2,3-dihydrobenzofuran-3-yl}-acetic acid] showed an EC50 of 2 nM.
`O=C(O)C[C@@H]1COc2cc(O[C@@H]3CCc4c3ccc(C(F)(F)F)c4Cc3ccc(Cl)cc3)ccc21` [Example 37, {(S)-6-[(R)-4-(4-Chloro-benzyl)-5-trifluoromethyl-indan-1-yloxy]-2,3-dihydrobenzofuran-3-yl}-acetic acid] showed an EC50 of 4 nM.
With `COc1ccc(Cc2c(C(F)(F)F)ccc3c2CC[C@H]3Oc2ccc3c(c2)OC[C@H]3CC(=O)O)cn1` [Example 38] the EC50 was 1 nM.
`COc1ccc(OC)c(Cc2c(C(F)(F)F)ccc3c2CC[C@H]3Oc2ccc3c(c2)OC[C@H]3CC(=O)O)c1` [Example 40, {(S)-6-[(R)-4-(2,5-Dimethoxy-benzyl)-5-trifluoromethyl-indan-1-yloxy]-2,3-dihydrobenzofuran-3-yl}-acetic acid] was tested, and the EC50 was 5 nM.
